Measured values as given in US20180008573A1, “METHODS AND COMPOSITIONS FOR REDUCING DAMAGE ASSOCIATED WITH OXIDATIVE PHOSPHORYLATION” (USANA Health Sciences, Inc., priority 2016, published 2018).

Tests used:
human NF-κB = assay: NF-κB antagonist reporter assay (NF-κB GRE-luciferase, HEK293 cells); assay type: cell-based;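 note: reporter cells carry native NF-κB receptor with firefly luciferase under upstream response elements, with a vehicle control included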
NF-κB reporter cells = assay: Live cell multiplex assay in the NF-κB antagonist assay; assay type: cell-based, human
Method: A vehicle control was prepared.

C. elegans strain CB5586 = assay: C. elegans phenotypic lifespan screening (Kaplan-Meier, Log-Rank, Fisher's Exact Test); assay type: in vivo; details: for % Change in Mean Lifespan: 0.1 mg/ml vs. DMSO control; for restricted mean lifespan, # of Days: DMSO control 13.23
Method: Dilutions of the test formulations were applied to individual populations of C. elegans and the lifespan of each population was monitored. Any changes in the lifespan of an individual population compared to a control population were recorded and correlated to the respective test formulation (N356 or N357) and the respective dilution (0.1 mg/ml, 1 mg/ml, and 10 mg/ml).
The […] and N357 formulations were each prepared as individual 100 mg/ml stock solutions in dimethyl sulfoxide (DMSO). Serial dilutions of each stock solution were then prepared at 0.1 mg/ml, 1 mg/ml, and 10 mg/ml in DMSO. Control solutions of DMSO only were also prepared. Synchronous aged adult populations of C.elegans strain CB5586 worms were prepared. The CB5586 strain comprises a pharyngeal GFP (green fluorescent protein) tag and a mutation in the bus-5 gene. The pharyngeal GFP tag allows for fluorescent images of the worm populations to be taken. The mutation in the bus-5 gene causes the loss of normal cuticle antigens that permits the cuticle of the worms to become permeable to the test formulations and allow direct uptake of the test formulations to avoid interaction of the test formulations with protective mechanisms of the gut channel. Each serial dilution of each test formulation was added to a separate population of the prepared worms. The control solutions were also added to separate populations of the prepared worms. The populations of the prepared worms were then maintained on standard nematode growth media (NGM) agar plates at 20° C. with sufficient food (Escherichia coli strain OP-50).
Each worm population was then monitored by fluorescent imaging to determine the number of living and dead worms as a function of time. The fluorescent imaging was analyzed by software that recognized and counted worms based on their fluorescent intensity compared to background fluorescence. […] The ability to distinguish between living and dead worms allowed the number of living worms and cumulative number of dead worms to be monitored against time. Worm populations from a selection of fluorescent images were manually checked to verify that the software had accurately counted the number of living and dead worms.
The counts of the living and dead worms as a function of time were then analyzed for each of the worm populations and used to prepare Kaplan-Meier survival curves and associated statistics for each of the worm populations. […] The median lifespan is shown as the length of time after the last mitotic division that 50% of the test population remains viable when compared to the control population. The maximum lifespan extension is shown as the length of time after the last mitotic division that 5% of the test population remains viable when compared to the control population.
The counts of the living and dead worms as a function of time and the Kaplan-Meier survival curves and the associated statistics were then analyzed for each of the worm populations. The analysis included determining mean and median lifespan. The analysis included a non-parametric test, the Log-Rank test, that compares two survival functions for the overall lifespan assay and provides a reliable p-value summarizing the whole experiment. The analysis also included Fisher's Exact Test that calculated the significance of survival function comparisons at multiple specific time points throughout the experiment, rather than for the overall lifespan. The results of the analysis are shown below in Tables 10-17.
Phenotypic screening was carried out as described in EXAMPLE 2 for various individual compounds of the N357 formulation. […] Alpha lipoic acid was sourced from PureBulk USA as a racemic mix of R and S stereoisomers and was assigned a sample number of N198. Hesperidin was sourced from Sigma Aldrich at ≧80% purity and was assigned a sample number of N347. […]

Q: For `O=C(O[C@@H]1Cc2c(O)cc(O)cc2O[C@@H]1c1cc(O)c(O)c(O)c1)c1cc(O)c(O)c(O)c1` [EGCG, epigallocatechin gallate], which “NF-κB % Inhibition” value (human NF-κB; 0.033 μg/ml active ingredient) is on record?
A: Its value is 10%.

Q: What about the “NF-κB % Inhibition” value (human NF-κB; 0.098 μg/ml active ingredient) of the same compound?
A: The value was 18%.

Q: And the “NF-κB % Inhibition” value (human NF-κB; 0.30 μg/ml active ingredient)?
A: The value was 0.10%.

Q: And the “NF-κB % Inhibition” value (human NF-κB; 0.89 μg/ml active ingredient)?
A: The value was 8.4%.

Q: What about the “NF-κB % Inhibition” value (human NF-κB; 2.67 μg/ml active ingredient) of the same compound?
A: The value was −15%.

Q: What about the “NF-κB % Inhibition” value (human NF-κB; 8 μg/ml active ingredient) of the same compound?
A: The value was −29%.

Q: And the “NF-κB % Live Cell” value (NF-κB reporter cells; 0.033 μg/ml active ingredient)?
A: The value was 102%.

Q: What about the “NF-κB % Live Cell” value (NF-κB reporter cells; 0.098 μg/ml active ingredient) of the same compound?
A: The value was 101%.

Q: And the “NF-κB % Live Cell” value (NF-κB reporter cells; 0.30 μg/ml active ingredient)?
A: The value was 105%.

Q: What about the “NF-κB % Live Cell” value (NF-κB reporter cells; 0.89 μg/ml active ingredient) of the same compound?
A: Its value is 104%.

Q: And the “NF-κB % Live Cell” value (NF-κB reporter cells; 2.67 μg/ml active ingredient)?
A: The value was 106%.

Q: What about the “NF-κB % Live Cell” value (NF-κB reporter cells; 8 μg/ml active ingredient) of the same compound?
A: Its value is 107%.

Q: `COc1ccc([C@@H]2CC(=O)c3c(O)cc(O[C@@H]4O[C@H](CO[C@@H]5O[C@@H](C)[C@H](O)[C@@H](O)[C@H]5O)[C@@H](O)[C@H](O)[C@H]4O)cc3O2)cc1O` [N347, hesperidin] was tested. Which “Statistically Significant Result (lifespan vs. DMSO control)” value (C. elegans strain CB5586; 0.1 mg/ml) did it give?
A: The value was “Statistically significant increase”.

Q: What about the extension of lifespan (C. elegans strain CB5586; 0.1 mg/ml) of the same compound?
A: Its extension of lifespan is “about 10%”.

Q: And the “population age in days at 25% mortality” value (C. elegans strain CB5586; 0.1 mg/ml)?
A: Its value is 11 days.

Q: And the “population age in days at 50% mortality” value (C. elegans strain CB5586; 0.1 mg/ml)?
A: Its value is 16 days.

Q: What about the “population age in days at 75% mortality” value (C. elegans strain CB5586; 0.1 mg/ml) of the same compound?
A: The value was 18 days.

Q: And the “effect on chronological lifespan” value (C. elegans strain CB5586; 0.1 mg/ml and 10 mg/ml tested)?
A: Its value is “significant positive and dose dependent increase of chronological lifespan”.

Q: What about the “% Change in Mean Lifespan” value (C. elegans strain CB5586) of the same compound?
A: Its value is “+10%”.

Q: And the “restricted mean lifespan, # of Days” value (C. elegans strain CB5586; 0.1 mg/ml)?
A: The value was 14.55 days.

Q: What about the “Statistically Significant Result (lifespan vs. DMSO control)” value (C. elegans strain CB5586; 10 mg/ml) of the same compound?
A: The value was “No statistical difference”.

Q: And the “population age in days at 25% mortality” value (C. elegans strain CB5586; 10 mg/ml)?
A: The value was 11 days.

Q: What about the “population age in days at 50% mortality” value (C. elegans strain CB5586; 10 mg/ml) of the same compound?
A: The value was 14 days.

Q: And the “population age in days at 75% mortality” value (C. elegans strain CB5586; 10 mg/ml)?
A: The value was 18 days.

Q: And the “restricted mean lifespan, # of Days” value (C. elegans strain CB5586; 10 mg/ml)?
A: Its value is 14.19 days.

Q: Which results are given for `C[C@@H]1O[C@@H](OC[C@H]2O[C@@H](Oc3c(-c4ccc(O)c(O)c4)oc4cc(O)cc(O)c4c3=O)[C@H](O)[C@@H](O)[C@@H]2O)[C@H](O)[C@H](O)[C@H]1O` [N346, rutin hydrate]?
A: decrease of lifespan (C. elegans strain CB5586; 0.1 mg/ml): about 9%; population age in days at 25% mortality (C. elegans strain CB5586; 0.1 mg/ml): 9 days; population age in days at 50% mortality (C. elegans strain CB5586; 0.1 mg/ml): 11 days; population age in days at 75% mortality (C. elegans strain CB5586; 0.1 mg/ml): 14 days; population age in days at 90% mortality (C. elegans strain CB5586; 0.1 mg/ml): 18 days; % Change in Mean Lifespan (C. elegans strain CB5586): −8%; restricted mean lifespan, # of Days (C. elegans strain CB5586; 0.1 mg/ml): 12.03 days; population age in days at 25% mortality (C. elegans strain CB5586; 10 mg/ml): 11 days; population age in days at 50% mortality (C. elegans strain CB5586; 10 mg/ml): 14 days; population age in days at 75% mortality (C. elegans strain CB5586; 10 mg/ml): 16 days; restricted mean lifespan, # of Days (C. elegans strain CB5586; 10 mg/ml): 13.43 days

Q: Which “NF-κB % Inhibition” value (human NF-κB; 1.11 μg/ml active ingredient) does the source give for `C[C@@H]1O[C@@H](OC[C@H]2O[C@@H](Oc3c(-c4ccc(O)c(O)c4)oc4cc(O)cc(O)c4c3=O)[C@H](O)[C@@H](O)[C@@H]2O)[C@H](O)[C@H](O)[C@H]1O` [Rutin, quercetin-3-O-rutinoside] here?
A: The value was 10%.

Q: What about the “NF-κB % Inhibition” value (human NF-κB; 3.3 μg/ml active ingredient) of the same compound?
A: Its value is −2.3%.

Q: And the “NF-κB % Inhibition” value (human NF-κB; 10.0 μg/ml active ingredient)?
A: The value was −11%.

Q: What about the “NF-κB % Inhibition” value (human NF-κB; 30 μg/ml active ingredient) of the same compound?
A: Its value is −15%.

Q: What about the “NF-κB % Live Cell” value (NF-κB reporter cells; 1.11 μg/ml active ingredient) of the same compound?
A: The value was 99%.

Q: What about the “NF-κB % Live Cell” value (NF-κB reporter cells; 3.3 μg/ml active ingredient) of the same compound?
A: The value was 98%.

Q: What about the “NF-κB % Live Cell” value (NF-κB reporter cells; 10.0 μg/ml active ingredient) of the same compound?
A: Its value is 101%.

Q: And the “NF-κB % Live Cell” value (NF-κB reporter cells; 30 μg/ml active ingredient)?
A: The value was 97%.
